Values of other authors as cited in publication PMC6916687 (Drug Design, Development and Therapy, 2019).

Tests used:
QGY-7703 cells = conditions: read-out: IC50 for QGY-7703 cells
MDA-MB-231 cells = conditions: read-out: IC50 for MDA-MB-231 cells

Structure (SMILES): O=c1c2ccccc2oc2cc(-c3ccccc3)ccc12 [3-phenylxanthone]
- IC50 (QGY-7703 cells): 6.27 µM

Structure (SMILES): Cc1ccc2c(=O)c3cccc(CC(=O)O)c3oc2c1C [DMXAA, 5,6-dimethylxanthone-4-acetic acid]
- IC50 (MDA-MB-231 cells): 48.4 µM
